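How tested: cells in 96-well plates exposed to compound for 48 hours at five concentrations. TGI: total growth inhibition.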
How the values were obtained:
Assay in all cases: NCI-60 cell line screen, 48 h
OVCAR-8 ovarian = test system: OVCAR-8 ovarian
UACC-62 melanoma = test system: UACC-62 melanoma
K-562 leukemia = test system: K-562 leukemia
HCT-15 colon = test system: HCT-15 colon
T-47D breast = test system: T-47D breast
NCI-H23 lung = test system: NCI-H23 lung
OVCAR-5 ovarian = test system: OVCAR-5 ovarian
KM12 colon = test system: KM12 colon
MOLT-4 leukemia = test system: MOLT-4 leukemia
SF-268 CNS = test system: SF-268 CNS
SN12C renal = test system: SN12C renal
A549 NSCLC = test system: A549 NSCLC
OVCAR-3 ovarian = test system: OVCAR-3 ovarian
HCC-2998 colon = test system: HCC-2998 colon
UACC-257 melanoma = test system: UACC-257 melanoma
HCT-116 colon = test system: HCT-116 colon
HOP-92 NSCLC = test system: HOP-92 NSCLC
SF-539 CNS = test system: SF-539 CNS
HOP-62 NSCLC = test system: HOP-62 NSCLC
MDA-MB-435 = test system: MDA-MB-435
HL-60(TB) leukemia = test system: HL-60(TB) leukemia
HT29 colon = test system: HT29 colon
DU-145 prostate = test system: DU-145 prostate
NCI-H522 lung = test system: NCI-H522 lung
MDA-N = test system: MDA-N
NCI-H460 lung = test system: NCI-H460 lung
SK-OV-3 ovarian = test system: SK-OV-3 ovarian
RPMI-8226 leukemia = test system: RPMI-8226 leukemia
OVCAR-4 ovarian = test system: OVCAR-4 ovarian
UO-31 renal = test system: UO-31 renal
IGROV1 ovarian = test system: IGROV1 ovarian
CCRF-CEM leukemia = test system: CCRF-CEM leukemia
U251 CNS = test system: U251 CNS
EKVX NSCLC = test system: EKVX NSCLC
786-0 renal = test system: 786-0 renal
PC-3 prostate = test system: PC-3 prostate
COLO 205 colon = test system: COLO 205 colon
SK-MEL-28 melanoma = test system: SK-MEL-28 melanoma
SW-620 colon = test system: SW-620 colon
SK-MEL-5 melanoma = test system: SK-MEL-5 melanoma
LOX IMVI melanoma = test system: LOX IMVI melanoma
MCF7 breast = test system: MCF7 breast
SNB-19 CNS = test system: SNB-19 CNS
BT-549 breast = test system: BT-549 breast
SR leukemia = test system: SR leukemia
SF-295 CNS = test system: SF-295 CNS
M14 melanoma = test system: M14 melanoma
TK-10 renal = test system: TK-10 renal
MDA-MB-231 breast = test system: MDA-MB-231 breast
NCI/ADR-RES ovarian = test system: NCI/ADR-RES ovarian
A498 renal = test system: A498 renal
NCI-H226 lung = test system: NCI-H226 lung
CAKI-1 renal = test system: CAKI-1 renal
SNB-75 CNS = test system: SNB-75 CNS
RXF 393 renal = test system: RXF 393 renal
SK-MEL-2 melanoma = test system: SK-MEL-2 melanoma
ACHN renal = test system: ACHN renal

Measured: TGI

O=C1CSC(c2c[nH]c3ccccc23)N1c1ccccc1[N+](=O)[O-] (stereo unspecified)
not listed: NCI/ADR-RES ovarian | A498 renal | NCI-H226 lung | CAKI-1 renal | SNB-75 CNS | RXF 393 renal | SK-MEL-2 melanoma | ACHN renal
> 100 µM: all other assays above

COC(=O)C1(C(=O)OC)N=C(C)OC1/C=C/c1ccccc1 (stereo unspecified)
not listed: SF-268 CNS | SF-539 CNS | HT29 colon | NCI-H522 lung | MDA-MB-231 breast
> 100 µM: all other assays above
